{"source": "patent US7202048B2", "about": "“Onset of force development as a marker of thrombin generation” (Hemodyne, Inc., priority 2002, dated 2007)", "assay_type_in_all_cases": "cell-based, human", "key": {"normal whole blood [1]": {"tested_on": "normal whole blood", "test": "Clot elastic modulus (CEM) in batroxobin/calcium-clotted whole blood (Hemodyne)", "conditions": "1200 seconds", "description": "(§1) The patients and normal controls in this study were enrolled under a series of protocols approved by the Institutional Review Board for Human Studies of Virginia Commonwealth University. Written consent was obtained from each volunteer. Blood was obtained via aseptic venipuncture into evacuated tubes containing 3.2% sodium citrate.\n(§2) Whole blood clot formation was induced by the addition of CaCl2 or a combination of CaCl2 and batroxobin (0.21 μg/ml). Platelet contractile force development and clot elastic modulus were measured for 1200 seconds.\nClot elastic modulus was measured by applying a downward force of known magnitude to the upper plate of the Hemodyne apparatus (9). The amount of downward displacement caused by the force was measured. The ratio of downward force (stress) to downward displacement (strain) was used to calculate the elastic modulus. Stress equals the force applied divided by the area of application and strain is the degree of shape change induced by the applied force."}, "normal whole blood [2]": {"tested_on": "normal whole blood", "test": "Thrombin generation time (TGT), onset of PCF after calcium and batroxobin", "description": "FIG. 1. Determination of the thrombin generation time (TGT) from the kinetics of platelet contractile force (PCF) development after addition of calcium (10 mM final) and batroxobin (0.21 μg/ml final) to 700 μl of citrated (3.2%) whole blood at time zero. The TGT is taken to be the initial inflection point of the PCF curve, ie. the moment the PCF first begins to increase.\nas §1, §2\nCitrated blood clotted with batroxobin, or other similar enzymes (e.g., reptilase), and calcium develops PCF. […] During this time period, thrombin is generated by re-calcification. Since the fibrin network is in place prior to the generation of thrombin, PCF becomes apparent as soon as a small amount of thrombin is generated (FIG. 1). Thus, the inflection or take off point in the PCF curve serves as a marker of thrombin generation in the batroxobin mediated assay. For ease in identification, the first derivative of the curve in FIG. 1 will provide a sharp break where the curve increases (TGT being at the spike). The instrumentation used for the analysis, such as that shown in FIG. 9, can provide the output of FIG. 1 or the first derivative for identification of TGT, or, alternatively, the output could simply be an indicator light array indicating when the TGT is in the normal range or outside of the normal range.\nWe designate the time between calcium addition and initial PCF development the Thrombin Generation Time (TGT). Similar results can be obtained without using a snake venom enzyme if one simply recalcifies the plasma sample. Since thrombin generation must be followed by fibrin clot formation before PCF can begin to occur in the recalcification assay, the lag phase tends to be longer and more variable. Similar assays termed reptilase clot retractions were shown in the early seventies to be sensitive to a variety of antiplatelet and anticoagulant agents (10)."}, "normal whole blood [3]": {"tested_on": "normal whole blood", "test": "Platelet contractile force (PCF) in batroxobin/calcium-clotted whole blood (Hemodyne)", "conditions": "for PCF: 1200 seconds", "description": "as §1, §2\nThe Hemodyne® hemostasis analyzer (Hemodyne, Inc., Richmond, Va., USA) measures forces generated by platelets within a clot formed between a thermostated cup and parallel upper plate (7,8). Before clotting, the upper plate is centered above the cup and lowered into the sample. As the clot forms, it attaches to the inner walls of the cup and the bottom of the upper plate. The entire sample volume is contained between the upper and lower surfaces. Once fibrin is formed, platelets within the network pull fibrin strands inward transmitting force through the network to the surfaces to which the clot is adherent. Force measurement is accomplished utilizing a transducer coupled to the upper plate. As platelets contract, the transducer produces an electrical output proportional to the amount of force generated. The transducer output is continuously recorded."}, "[4]": {"conditions": "0.165 U/ml added to normal whole blood"}, "[5]": {"conditions": "0.330 U/ml added to normal whole blood"}, "[6]": {"conditions": "0.660 U/ml added to normal whole blood"}, "[7]": {"conditions": "1.320 U/ml added to normal whole blood"}, "[8]": {"conditions": "increasing concentrations in normal whole blood"}, "[9]": {"conditions": "bivalirudin 3.5 μg/ml in normal whole blood"}}, "note": "Entries after “also recorded” stand apart in the source; their conditions may differ."}
{"substance": "Hirudin", "values": [{"measurement": "CEM", "setting": "normal whole blood [1]; [4]", "value": 12.34, "unit": "Kdynes/cm^2"}, {"measurement": "CEM", "setting": "normal whole blood [1]; [5]", "value": 11.21, "unit": "Kdynes/cm^2"}, {"measurement": "CEM", "setting": "normal whole blood [1]; [6]", "value": 6.50, "unit": "Kdynes/cm^2"}, {"measurement": "CEM", "setting": "normal whole blood [1]; [7]", "value": 0.73, "unit": "Kdynes/cm^2"}, {"measurement": "TGT", "setting": "normal whole blood [2]; [4]", "value": 420, "unit": "s"}, {"measurement": "TGT", "setting": "normal whole blood [2]; [5]", "value": 480, "unit": "s"}, {"measurement": "TGT", "setting": "normal whole blood [2]; [6]", "value": 560, "unit": "s"}, {"measurement": "TGT", "setting": "normal whole blood [2]; [7]", "value": ">1200", "unit": "s"}, {"measurement": "Effect on TGT", "setting": "normal whole blood [2]; [8]", "value": "prolongs; also recorded: dose depend prolongation"}, {"measurement": "PCF", "setting": "normal whole blood [3]; [4]", "value": 4.01, "unit": "Kdynes"}, {"measurement": "PCF", "setting": "normal whole blood [3]; [5]", "value": 3.57, "unit": "Kdynes"}, {"measurement": "PCF", "setting": "normal whole blood [3]; [6]", "value": 1.80, "unit": "Kdynes"}, {"measurement": "PCF", "setting": "normal whole blood [3]; [7]", "value": 0.70, "unit": "Kdynes"}, {"measurement": "Effect on PCF", "setting": "normal whole blood [3]; [8]", "value": "declines; also recorded: reduction"}]}
{"substance": "bivalirudin", "values": [{"measurement": "Effect on TGT", "setting": "normal whole blood [2]; [9]", "value": "prolongs"}, {"measurement": "Effect on PCF", "setting": "normal whole blood [3]; [9]", "value": "lower; also recorded: decreases"}]}
